We go through 2 compounds from US20010047090A1, “VANILREP1 polynucleotides and VANILREP1 polypeptides” (priority 1998, published 2001).

The target of test [1] is T1, VANILREP1 (Homo sapiens, UniProt Q8NER1, K571I/M315I/M572C).
T1 construct: expressed in transfected cells; host or cells: Xenopus laevis oocytes (nuclear injection of cDNA)
Nature of the test: Two-electrode voltage-clamp recordings in Xenopus laevis oocytes injected with VANILREP1 cDNA. The test is classed as cell-based. As to the method: (§1) Xenopus laevis oocyte removal and dissociation were performed. Injections of cDNA for […]1 were made into the nuclei of defolliculated oocytes (1.5ng cDNA/oocyte). After injection the oocytes were incubated between 19-22° C. in modified Barth's solution (MBS) plus gentamycin (0.1mg/ml, pH 7.4) and used for electrophysiological recordings within 2-4 days.
(§2) For electrophysiological recordings oocytes were placed in a recording chamber and continuously perfused with a solution containing in mM: NaCl 88, KCI 1, NaHCO3 2.4, HEPES 15, MgCI2 1, BaCI2 0.1. (14 ml min^−1). Solution was applied using large bore tubing (internal diameter 1.5mm) which facilitated rapid solution exchange half-time 350 -1000 ms). Oocytes were held under voltage clamp at −60mV using the two-electrode voltage-clamp technique. Electrodes were low resistance (0.5-3 MΩ) and were filled with 3 M KCI.
(§3) Currents were evoked in response to application of capsaicin applied through the perfusion system until the maximum current amplitude was reached.

The target of test [2] is T2, VANILREP1 (Homo sapiens, UniProt Q8NER1).
T2 construct: expressed in transfected cells; host or cells: Xenopus laevis oocytes (nuclear injection of cDNA)
The description is as above. It is filed as cell-based. Particulars: oocytes expressing VANILREP1, held at −60mV; capsaicin over a range of concentrations; FIG. 1. As to the method: as §1, §2, §3

T1 sequence (Q8NER1 whole entry M315I/K571I/M572C): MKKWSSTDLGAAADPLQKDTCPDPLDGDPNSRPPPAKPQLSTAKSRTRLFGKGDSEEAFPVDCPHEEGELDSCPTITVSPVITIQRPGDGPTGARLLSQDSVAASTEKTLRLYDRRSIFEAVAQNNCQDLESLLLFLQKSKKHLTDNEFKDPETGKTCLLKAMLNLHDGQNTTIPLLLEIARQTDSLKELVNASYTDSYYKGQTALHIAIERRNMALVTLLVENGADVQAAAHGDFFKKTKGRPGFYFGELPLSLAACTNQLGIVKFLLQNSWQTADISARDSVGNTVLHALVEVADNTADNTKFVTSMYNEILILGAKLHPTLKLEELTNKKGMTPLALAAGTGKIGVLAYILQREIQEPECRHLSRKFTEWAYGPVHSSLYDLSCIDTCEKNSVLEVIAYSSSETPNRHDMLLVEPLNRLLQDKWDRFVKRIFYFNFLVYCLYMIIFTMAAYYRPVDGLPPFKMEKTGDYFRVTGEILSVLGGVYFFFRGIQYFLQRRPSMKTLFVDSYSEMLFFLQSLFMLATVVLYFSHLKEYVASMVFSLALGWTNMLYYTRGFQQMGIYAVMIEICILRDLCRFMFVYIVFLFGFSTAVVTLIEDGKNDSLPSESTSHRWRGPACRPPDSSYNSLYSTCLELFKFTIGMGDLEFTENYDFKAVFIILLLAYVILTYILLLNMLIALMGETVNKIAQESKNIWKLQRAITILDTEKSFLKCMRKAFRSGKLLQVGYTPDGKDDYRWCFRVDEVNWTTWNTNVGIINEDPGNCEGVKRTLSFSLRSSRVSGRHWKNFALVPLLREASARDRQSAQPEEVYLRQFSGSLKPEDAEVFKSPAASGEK
T2 sequence (Q8NER1 whole entry M315I/K571I/M572C): as above

`Oc1cc2c(cc1O)CN(C(=S)NCCc1ccc(Cl)cc1)CCC2` [capsazepine]: the “inhibition of the capsaicin evoked response” value at VANILREP1 [1] (capsazepine 10uM against capsaicin 1uM, oocytes expressing VANILREP1, FIG. 2) was “inhibition”. Further, on VANILREP1 [1] (capsazepine 10uM, capsaicin 1uM, extended washing), the “reversibility of the inhibition of the capsaicin evoked response” value is recorded as “reversible with extended washing”.
On to `COc1cc(CNC(=O)CCCC/C=C/C(C)C)ccc1O` [capsaicin], for which the “currents evoked in response to application of capsaicin” value on VANILREP1 [2] is “currents evoked”.
